Laboratory results from patent US8853193B2, “Thienopyrimidines containing a substituted alkyl group for pharmaceutical compositions” (Boehringer Ingelheim International GmbH, priority 2010, dated 2014).
Structures can show the parent of a compound that is named as a salt.

Biological target: human Mnk2a (Homo sapiens (Human), UniProt Q9HBH9)
Test: Mnk2a in vitro kinase assay (indirect competitive fluorescence polarization)
Format: biochemical
Conditions: pre-activated GST-Mnk2a 2.5 nM, 20 μM ATP, 30 μM substrate peptide; read-out: MNK2 IC50
Protocol: Inhibitory potency of compounds against Mnk1, Mnk2a and other kinases was assessed with assays based on a format known to those skilled in the art as the indirect (competitive) fluorescence polarization. The assay detection system comprises a small fluorophore-labeled phospho-peptide (termed ligand) bound to a phospho-specific antibody. The product generated by the kinase reaction competes with the ligand for antibody binding. Based on the larger molecular volume of the bound ligand, which results in a lower rotation rate in solution, its emitted light has a higher degree of polarization than the one from the free ligand.
In brief, the open reading frames of human Mnk1 and Mnk2a were amplified from cDNA using the forward/reverse primer pairs
(utilized restriction sites underlined), respectively, and cloned into the BamHI and SalI sites of the vector pGEX-4T1 (Amersham, Sweden, cat. no. 27-4580-01). These constructs allow prokaryotic expression of Mnk1 or Mnk2a as fusion protein with a N-terminal glutathione S-transferase (GST) tag, referred to as GST-Mnk1 or GST-Mnk2a. The following expression and purification procedure was identical for GST-Mnk1 and GST-Mnk2a, referring in general to GST-Mnk, when not distinguishing between the two isoforms. Expression of GST-Mnk was in E. coli BL21 (Merck Biosciences, Germany, cat. no. 69449). Cells were grown in LB-Bouillon (Merck, Germany, cat. no. 1.10285) supplemented with 100 μg/ml ampicillin (Sigma, Germany, cat. no. A9518) at 37° C. […] Cells harvested by centrifugation were resuspended in 10 ml lysis buffer (50 mM tris(hydroxymethyl)aminomethane hydrochloride (Tris/HCl, Sigma, Germany, cat. no. T5941) pH 7.5, 300 mM sodium chloride (NaCl, Sigma, Germany, cat. no. S7653), 5% (w/v) glycerol (Sigma, Germany, cat. no. G5516), 3 mM DTT dithiotreitol (DTT, Sigma, Germany, cat. no. D9779)) per gram wet weight cell pellet. Lysates were prepared by disruption of cells with a sonifier and subsequent clearing by centrifugation at 38000 g for 45 min at 4° C.
The lysate was applied to a GSTPrep FF 16/10 column (Amersham, Sweden, cat. no. 17-5234-01) equilibrated with lysis buffer. Removal of unbound material was with 3 column volumes (CV) lysis buffer. Elution was with 2 CV of elution buffer (50 mM Tris/HCl pH 7.5, 300 mM NaCl, 5% (w/v) glycerol, 20 mM glutathione (Sigma, Germany, cat. no. G4251)). Peak fractions were pooled and the protein transferred into storage buffer (50 mM Tris/HCl pH 7.5, 200 mM NaCl, 0.1 mM ethylene glycol[…] bis(2-aminoethylether)-N,N,N′,N′-tetraacetic acid (EGTA, Aldrich, Germany, cat. no. 23, 453-2), 1 mM DTT, 10% (w/v) glycerol, 0.5 M sucrose (Sigma, Germany, cat. no. S0389) by gel filtration on a PD10 desalting column (Amersham, Sweden, cat. no. 17-0851-01). Aliquots were shock frozen in liquid nitrogen and stored at −80° C.
Activation of Mnk1 and Mnk2a was at a concentration of 2.5 μM of either purified GST-Mnk1 or GST-Mnk2a by incubation with 150 nM pre-activated NHis-ERK2 (see ERK2 assay for preparation) and 50 μM adenosine triphosphate (ATP, Sigma, cat. no. A2699) in a buffer comprising 20 mM N-(2-hydroxyethyl)piperazine-N′-(2-ethanesulfonic acid) (HEPES, Fluka, Germany, cat. no 54459)/potassium hydroxide (KOH, Roth, Germany, cat. no 6751.1) pH 7.4, 10 mM magnesium chloride (MgCl2, Sigma, Germany, cat. no. M2670), 0.25 mM DTT, 0.05% (w/v) polyoxyethylene 20 stearylether (Brij 78, Sigma, Germany, cat. no. P4019) (HMDB buffer) for 45 min at 30° C. After the incubation, the preparation was aliquoted into single-use samples, shock frozen in liquid nitrogen, stored at −80° C. and utilized for Mnk1 or Mnk2a kinase assays as detailed below.
The serine residue phosphorylated by Mnk kinases is underlined.

Sequence of human Mnk2a (Q9HBH9 whole entry): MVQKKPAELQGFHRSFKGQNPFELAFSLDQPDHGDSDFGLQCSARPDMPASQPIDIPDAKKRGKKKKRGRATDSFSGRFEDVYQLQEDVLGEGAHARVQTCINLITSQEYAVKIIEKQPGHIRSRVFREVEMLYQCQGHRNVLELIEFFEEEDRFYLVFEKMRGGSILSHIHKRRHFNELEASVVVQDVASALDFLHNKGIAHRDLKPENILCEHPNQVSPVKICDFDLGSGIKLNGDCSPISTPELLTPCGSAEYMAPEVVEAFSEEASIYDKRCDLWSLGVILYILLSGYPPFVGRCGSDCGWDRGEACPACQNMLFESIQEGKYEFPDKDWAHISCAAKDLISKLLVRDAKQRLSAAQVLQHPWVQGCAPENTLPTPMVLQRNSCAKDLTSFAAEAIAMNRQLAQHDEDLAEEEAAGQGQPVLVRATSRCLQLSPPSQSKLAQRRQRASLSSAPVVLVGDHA

| Compound | IC50 |
| --- | --- |
| CCNC(=O)C(C)Oc1cc(F)ccc1Nc1ncnc2sc(C(=O)NCCCN(C)C)c(C)c12 (centres unmarked) [Compound 40, 4-[2-(1-Ethylcarbamoyl-ethoxy)-4-fluoro-phenylamino]-5-methyl-thieno[2,3-d]pyrimidine-6-carboxylic acid (3-dimethylamino-propyl)-amide] | 20 nM |
| Cc1c(C(=O)NCCCN2CCOCC2)sc2ncnc(Nc3cccnc3OC(C)C)c12 [Compound 36-4] | 44 nM |
| COC(=O)c1sc2ncnc(Nc3ccc(F)cc3OC(C)CCNS(C)(=O)=O)c2c1C (centres unmarked) [Compound 13, Methyl 4-(4-fluoro-2-(4-(methylsulfonamido)butan-2yloxy)phenylamino)-5-methyl-thieno[2,3-d]pyrimidine-6-carboxylate] | 90 nM |
| Cc1c(C(=O)O)sc2ncnc(Nc3cccnc3OCC(F)F)c12 [Compound 30-2, 4-(2-(2,2-Difluoroethoxy)pyridin-3-ylamino)-5-methylthieno[2,3-d]pyrimidine-6-carboxylic acid] | 20 nM |
| Cc1c(C(=O)O)sc2ncnc(Nc3ccc(F)cc3OC(C)CNC(=O)OC(C)(C)C)c12 (centres unmarked) [Compound 1-2, 4-(2-(1-(tert-Butoxycarbonylamino)propan-2-yloxy)-4-fluorophenylamino)-5-methyl-thieno[2,3-d]pyrimidine-6-carboxylic acid] | 52 nM |
| Cc1c(C(=O)NCCCN(C)C)sc2ncnc(Nc3ccc(C#N)cc3OC(CF)CF)c12 [Compound 49, 4-(4-Cyano-2-(2-fluoro-1-fluoromethyl-ethoxy)-phenylamino]-5-methyl-thieno[2,3-d]pyrimidine-6-carboxylic acid (3-dimethylamino-propyl)-amide] | 8 nM |
| Cc1c(C(=O)NCCO)sc2ncnc(Nc3ccc(C#N)cc3OC(CF)CF)c12 [Compound 51, 4-(4-Cyano-2-(2-fluoro-1-fluoromethyl-ethoxy)-phenylamino]-5-methyl-thieno[2,3-d]pyrimidine-6-carboxylic acid (2-hydroxy-ethyl)-amide] | 10 nM |
| CCC(CN)Oc1cc(F)ccc1Nc1ncnc2sc(C(=O)OC)c(C)c12 (centres unmarked) [Compound 10-2, Methyl 4-(2-(1-aminobutan-2yloxy)-4-fluorophenylamino)-5-methyl-thieno[2,3-d]pyrimidine-6-carboxylate hydrochloride] | 229 nM |
| Cc1c(C(=O)NCc2cn(C)cn2)sc2ncnc(Nc3cccnc3OC(C)C)c12 [Compound 36-15, 4-(2-Isopropoxypyridin-3ylamino)-5-methyl-N-((1-methyl-1H-imidazol-4-yl)methyl) thieno[2,3-d]pyrimidine-6-carboxamide] | 24 nM |
| Cc1c(C(N)=O)sc2ncnc(Nc3ccc(F)cc3O[C@@H](C)CNC(=O)OC(C)(C)C)c12 (racemic) [Compound 6-1, (R) and (S)-tert-butyl 2-(2-(6-carbamoyl-5-methyl-thieno[2,3-d]pyrimidin-4-ylamino)-5-fluorophenoxy)propylcarbamate] | 164 nM |
| Cc1c(C(=O)NCC#CCN(C)C)sc2ncnc(Nc3cccnc3OC(C)C(F)(F)F)c12 (centres unmarked) [Compound 21-7, 5-Methyl-4-[2-(2,2,2-trifluoro-1-methyl-ethoxy)-pyridin-3-ylamino]-thieno[2,3-d]pyrimidine-6-carboxylic acid (4-dimethylamino-but-2-ynyl)-amide] | 24 nM |
| Cc1c(C(=O)NCCC2CCN(C)C2)sc2ncnc(Nc3ccc(F)cc3OC(C)CF)c12 (centres unmarked) [Compound 32-43] | 12 nM |
| COC(=O)c1sc2ncnc(Nc3ccc(F)cc3OC(C)C(=O)NCCCN)c2c1C (centres unmarked) [Compound 56, 4-{2-[1-(3-Amino-propylcarbamoyl)-ethoxy]-4-fluoro-phenylamino}-5-methyl-thieno[2,3-d]pyrimidine-6-carboxylic acid methyl ester] | 314 nM |
| Cc1c(C(N)=O)sc2ncnc(Nc3ccc(F)cc3OC(C)CF)c12 (centres unmarked) [Compound 32-28] | 3 nM |
| CNC(=O)c1sc2ncnc(Nc3ccc(F)cc3OC(C)CNC(=O)OC(C)(C)C)c2c1C (centres unmarked) [Compound 1-3, tert-Butyl 2-(5-fluoro-2-(5-methyl-6-(methylcarbamoyl)thieno[2,3-d]pyrimidin-4-ylamino)phenoxy)propylcarbamate] | 342 nM |
| Cc1c(C(N)=O)sc2ncnc(Nc3cccnc3OCC3(CC#N)CC3)c12 [Compound 33-4] | 16 nM |
| COC(=O)c1sc2ncnc(Nc3cccnc3OC(C)CN)c2c1C (centres unmarked) [Compound 11-2, Methyl 4-(2-(1-aminopropan-2yloxy)-pyridin-3-ylamino)-5-methyl-thieno[2,3-d]pyrimidine-6-carboxylate hydrochloride] | 418 nM |
| Cc1c(C(=O)NCCCN2CCCC2)sc2ncnc(Nc3ccc(F)cc3OC(C)CF)c12 (centres unmarked) [Compound 32-44] | 6 nM |
| COC(=O)c1sc2ncnc(Nc3ccc(F)cc3OC(C)CN)c2c1C (centres unmarked) [Compound 2-1, Methyl 4-(2-(1-aminopropan-2-yloxy)-4-fluorophenylamino)-5-methyl-thieno[2,3-d]pyrimidine-6-carboxylate trifluoroacetate] | 70 nM |
| Cc1c(C(=O)O)sc2ncnc(Nc3ccc(F)cc3OC(C)CN)c12 (centres unmarked) [Compound 7, 4-(2-(1-Aminopropan-2-yloxy)-4-fluorophenylamino)-5-methyl-thieno[2,3-d]pyrimidine-6-carboxylic acid trifluoroacetate] | 14 nM |
| COC(=O)c1sc2ncnc(Nc3ccc(F)cc3OCCN)c2c1C [Compound 9-2, Methyl 4-(2-(2-aminoethoxy)-4-fluorophenylamino)-5-methyl-thieno[2,3-d]pyrimidine-6-carboxylate hydrochloride] | 577 nM |
| Cc1c(C(=O)NCCCN(C)C)sc2ncnc(Nc3ccc(F)cc3OCC(C)F)c12 (centres unmarked) [Compound 32-39] | 35 nM |
| CCNC(=O)C(C)Oc1cc(F)ccc1Nc1ncnc2sc(C(=O)O)c(C)c12 (centres unmarked) [Compound 39, 4-[2-(1-Ethylcarbamoyl-ethoxy)-4-fluoro-phenylamino]-5-methyl-thieno[2,3-d]pyrimidine-6-carboxylic acid] | 19 nM |
| Cc1c(C(=O)NC2CCN(C)CC2)sc2ncnc(Nc3cccnc3OC(C)C)c12 [Compound 36-10, 4-(2-Isopropoxypyridin-3ylamino)-5-methyl-N-(1-methylpiperidin-4-yl)thieno[2,3-d]pyrimidine-6-carboxamide] | 32 nM |
| Cc1c(C(N)=O)sc2ncnc(Nc3ccc(F)cc3OC(C)C(C)(C)O)c12 (centres unmarked) [Compound 60, 4-[4-Fluoro-2-(2-hydroxy-1,2-dimethyl-propoxy)-phenylamino]-5-methyl-thieno[2,3-d]pyrimidine-6-carboxylic acid amide] | 37 nM |
| Cc1c(C(=O)NC2CCN(C)CC2)sc2ncnc(Nc3ccc(C#N)cc3OC(CF)CF)c12 [Compound 50, 4-(4-Cyano-2-(2-fluoro-1-fluoromethyl-ethoxy)-phenylamino]-5-methyl-thieno[2,3-d]pyrimidine-6-carboxylic acid (1-methyl-piperidin-4-yl)-amide] | 13 nM |
| Cc1c(C(=O)NCCCO)sc2ncnc(Nc3cccnc3OC(C)C)c12 [Compound 36-11, N-(3-Hydroxypropyl)-4-(2-isopropoxypyridin-3ylamino)-5-methylthieno[2,3-d]pyrimidine-6-carboxamide] | 45 nM |
| Cc1c(C(=O)NCCCN(C)C)sc2ncnc(Nc3ccc(F)cc3OCCC(F)(F)F)c12 [Compound 32-38] | 26 nM |
| Cc1c(C(=O)O)sc2ncnc(Nc3ccc(F)cc3OCC(F)F)c12 [Compound 32-4] | 13 nM |
